# Measurements from patent publication US12466810B2, “N-(5-(6-ethoxypyrazin-2-yl)pyridin-2-yl)-4-(2-(methylsulfonamido)pyrimidin-4-yl) tetrahydro-2H-pyran-4-carboxamide derivatives and related compounds as human CTPS1 inhibitors for the treatment of proliferative diseases” (Step Pharma S.A.S., priority 2019, dated 2025).
# Assays:
# human CTPS1 = biological target: T1, human CTPS1 (Homo sapiens, UniProt P17812); experiment: Human CTPS1 enzyme inhibition (ADP-Glo Max assay); format: biochemical; conditions: 25° C., read-out: Human CTPS1 Enzyme Inhibition IC50, grouped by potency range
# T1 construct: FLAG (GG linker + DYKDDDDK); His8 (GG linker + HHHHHHHH); purchased Proteros biostructures GmbH
# T1 sequence (P17812 1-591): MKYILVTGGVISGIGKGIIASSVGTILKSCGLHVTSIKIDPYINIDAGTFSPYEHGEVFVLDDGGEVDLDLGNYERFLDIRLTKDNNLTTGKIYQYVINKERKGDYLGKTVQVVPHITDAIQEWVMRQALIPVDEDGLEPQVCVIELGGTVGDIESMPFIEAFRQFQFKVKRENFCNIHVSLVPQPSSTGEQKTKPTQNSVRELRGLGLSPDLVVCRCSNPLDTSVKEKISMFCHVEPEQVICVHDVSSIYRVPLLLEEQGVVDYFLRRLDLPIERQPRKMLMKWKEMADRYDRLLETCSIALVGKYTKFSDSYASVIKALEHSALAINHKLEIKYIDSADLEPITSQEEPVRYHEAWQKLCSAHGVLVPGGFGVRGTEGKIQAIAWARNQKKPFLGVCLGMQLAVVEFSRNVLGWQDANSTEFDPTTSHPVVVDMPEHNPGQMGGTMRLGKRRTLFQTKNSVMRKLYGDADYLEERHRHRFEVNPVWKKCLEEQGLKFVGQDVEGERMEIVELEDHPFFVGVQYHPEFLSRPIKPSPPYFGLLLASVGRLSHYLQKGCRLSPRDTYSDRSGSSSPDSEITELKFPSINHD
# Method: The enzyme inhibitory activities of compounds invented against the target of interest were determined using the ADP-Glo™ Max assay (Promega, UK). Assays for human CTPS1 were performed in 1× assay buffer containing 50 mM Tris, 10 mM MgCl2, 0.01% Tween-20, pH to 8.0 accordingly. Finally, immediately before use, L-cysteine was added to the 1× assay buffer to a final concentration of 2 mM. All reagents are from Sigma-Aldrich unless specified otherwise.
# Human full length active C-terminal FLAG-Hiss-tag CTPS1 (UniProtKB—P17812, CTPS1[1-591]-[…] (CTPS1[1-591]-SEQ ID NO: 1)) was obtained from Proteros biostructures GmbH.
# 3× human CTPS1 protein was prepared in 1× assay buffer to the final working protein concentration required for the reaction. A 2 uL volume per well of 3× human CTPS1 protein was mixed with 2 uL per well of 3× test compound (compound prepared in 1× assay buffer to an appropriate final 3× compound concentration respective to the concentration response curve designed for the compounds under test) for 10 minutes at 25° C. The enzymatic reaction was then initiated by addition of a 2 uL per well volume of a pre-mixed substrate mix (UltraPure ATP from ADP-GIo™ Max kit (0.31 mM), GTP (0.034 mM), UTP (0.48 mM) and L-glutamine (0.186 mM)) and the mixture was incubated for an appropriate amount of time within the determined linear phase of the reaction at 25° C. under sealed plate conditions with constant agitation at 500 revolutions per minute (rpm). ADP-GIo™ Max reagent was added for 60 minutes (6 μL per well) and subsequently ADP-GIo™ Max development reagent was added for 60 minutes (12 uL per well) prior to signal detection in a microplate reader (EnVision® Multilabel Reader, Perkin Elmer). Following each reagent addition over the course of the assay, assay plates were pulse centrifuged for 30 seconds at 500 rpm.
# In all cases, the enzyme converts ATP to ADP and the ADP-Glo™ Max reagent subsequently depletes any remaining endogenous ATP in the reaction system. The ADP-Glo™ Max detection reagent converts the ADP that has been enzymatically produced back into ATP and using ATP as a substrate together with luciferin for the enzyme luciferase, light is generated which produces a detectable luminescence. […] The percentage inhibition produced by each concentration of compound was calculated using the equation shown below: […]
# (§1) Percentage inhibition was then plotted against compound concentration, and the 50% inhibitory concentration (IC50) was determined from the resultant concentration-response curve.
# Human CTPS1 Versus CTPS2 = experiment: RapidFire/MS-based enzyme selectivity assay, human CTPS1 versus CTPS2; format: biochemical; conditions: RapidFire/MS IC50s
# Method: Human CTPS1 Versus CTPS2 Selectivity Assessment by RapidFire/MS Analysis.
# The enzyme inhibitory activities against each target isoform of interest may be determined for the compounds of the invention using an optimised RapidFire high-throughput mass spectrometry (RF/MS) assay format. RF/MS assays for both human CTPS1 and CTPS2 may be performed in assay buffer consisting of 50 mM HEPES (Merck), 20 mM MgCl2, 5 mM KCl, 1 mM DTT, 0.01% Tween-20, pH to 8.0 accordingly. Human full-length active C-terminal FLAG-His-tag CTPS1 (UniProtKB—P17812, CTPS1[1-591]-[…] (CTPS1[1-591]-SEQ ID NO: 1)) may be obtained from Proteros biostructures GmbH. Human full length active C-terminal FLAG-His-Avi tagged CTPS2 (UniProtKB—Q9NRF8, CTPS2 [1-586]—[…] (CTPS2 [1-586]-SEQ ID NO: 2)) may be obtained from Harker Bio.
# Human CTPS (1 or 2) protein may be prepared in 1× assay buffer to the final working protein concentration required for the reaction. A 2 uL volume per well of 2×CTPS (1 or 2) protein may be mixed with 40 nL of compound using acoustic (ECHO) delivery and incubated for 10 minutes at 25° C. Each isoform enzymatic reaction may be subsequently initiated by addition of 2 uL per well of a 2× substrate mix in assay buffer. For hCTPS1: ATP (0.3 mM), UTP (0.2 mM), GTP (0.07 mM) and L-glutamine (0.1 mM). For hCTPS2: ATP (0.1 mM), UTP (0.04 mM), GTP (0.03 mM) and L-glutamine (0.1 mM). Each mixture may be incubated for an appropriate amount of time per isoform within the determined linear phase of the reaction at 25° C. A 60 uL volume of stop solution (1% formic acid with 0.5 uM ^13C9-^15N3-CTP in H2O) may be added and the plate immediately heat-sealed and centrifuged for 10 minutes at 4,000 rpm. Following centrifugation, plates may be loaded onto the Agilent RapidFire microfluidic solid phase extraction system coupled to an API4000 triple quadrupole mass spectrometer (RF/MS) for analysis.
# In all cases, the enzyme converts UTP to CTP. Highly specific and sensitive multiple reaction monitoring (MRM) MS methods may be optimised for the detection of the enzymatic reaction product, CTP, and the stable isotope labelled product standard ^13C-^15N-CTP. Readout for data analysis may be calculated as the ratio between the peak area of the product CTP and the internal standard […]. For data reporting, the following equation may be used: […]
# For each screening plate, the means of the negative (DMSO) and positive control values were used for the calculation of the respective assay window (S/B) and Z′ values. The median of the respective control values was used for calculation of percent inhibition according to the following equation: […]
# as §1
# Fold selectivity between CTPS1 and CTPS2 was subsequently calculated according to the following equation: […]
SMILES,IC50 (human CTPS1) [nM],Fold selectivity between CTPS1 and CTPS2 (CTPS1) (Human CTPS1 Versus CTPS2)
"CCOc1cncc(-c2ccc(NC(=O)C3(c4ccnc(NS(=O)(=O)C5CC5)n4)CCN(C(=O)NC(C)C)CC3)nc2)n1 [P233, 4-(2-(Cyclopropanesulfonamido)pyrimidin-4-yl)-N4-(5-(6-ethoxypyrazin-2-yl)pyridin-2-yl)-N1-isopropylpiperidine-1,4-dicarboxamide]",≤ 100,+++ (>60 fold (+++))
"CCOc1cncc(-c2ccc(NC(=O)C3(c4nccc(NS(=O)(=O)C5CC5)n4)CCN(C)CC3)nc2)n1 [P319, 4-(4-(cyclopropanesulfonamido)pyrimidin-2-yl)-N-(5-(6-ethoxypyrazin-2-yl)pyridin-2-yl)-1-methylpiperidine-4-carboxamide]",≤ 100,+++ (>60 fold (+++))
"CCOc1cncc(-c2ccc(NC(=O)C3(c4ccnc(NS(C)(=O)=O)n4)CCCCC3)nc2)n1 [P238, N-(5-(6-ethoxypyrazin-2-yl)pyridin-2-yl)-1-(2-(methylsulfonamido)pyrimidin-4-yl)cyclohexane-1-carboxamide]",≤ 100,+++ (>60 fold (+++))

# Second part, the compound after the results:
IC50 (human CTPS1) [nM],Fold selectivity between CTPS1 and CTPS2 (CTPS1) (Human CTPS1 Versus CTPS2),SMILES
≤ 100,++ (>30-60 fold (++)),"O=C(Nc1ccc(-c2cncc(Cl)c2)cn1)C1(c2ccnc(NS(=O)(=O)C3CC3)n2)CCOCC1 [P253, N-(5′-chloro-[3,3′-bipyridin]-6-yl)-4-(2-(cyclopropanesulfonamido)pyrimidin-4-yl)tetrahydro-2H-pyran-4-carboxamide]"
≤ 100,+++ (>60 fold (+++)),"CCOc1cncc(-c2ccc(NC(=O)C3(c4cncc(NS(=O)(=O)C5CC5)n4)CCCCC3)nc2)n1 [P239, 1-(6-(cyclopropanesulfonamido)pyrazin-2-yl)-N-(5-(6-ethoxypyrazin-2-yl)pyridin-2-yl)cyclohexane-1-carboxamide]"
100 to 1000,+++ (>60 fold (+++)),"CCOc1cncc(-c2ccc(NC(=O)C3(c4ccnc(NS(=O)(=O)C5(C)CC5)n4)CCOCC3)nc2)n1 [P247, N-(5-(6-ethoxypyrazin-2-yl)pyridin-2-yl)-4-(2-((1-methylcyclopropane)-1-sulfonamido)pyrimidin-4-yl)tetrahydro-2H-pyran-4-carboxamide]"
≤ 100,+ (2-30 fold (+)),"CCOc1cncc(-c2ccc(NC(=O)C3(c4ccnc(NS(=O)(=O)C5CC5)n4)CCOCC3)c(C)c2)n1 [P240, 4-(2-(cyclopropanesulfonamido)pyrimidin-4-yl)-N-(4-(6-ethoxypyrazin-2-yl)-2-methylphenyl)tetrahydro-2H-pyran-4-carboxamide]"
≤ 100,+++ (>60 fold (+++)),"CCOc1cncc(-c2ccc(NC(=O)C3(c4ccnc(NS(=O)(=O)C5CC5)n4)CCCCC3)nc2)n1 [P237, 1-(2-(cyclopropanesulfonamido)pyrimidin-4-yl)-N-(5-(6-ethoxypyrazin-2-yl)pyridin-2-yl)cyclohexane-1-carboxamide]"
